As usually defined, the IC50 is the concentration that inhibits the measured activity by half.

The values below come from ChEMBL document CHEMBL5143606, “Selective Wee1 degradation by PROTAC degraders recruiting VHL and CRBN E3 ubiquitin ligases” (Bioorg Med Chem Lett, 2022).

Calls of active or inactive are those of the source. No cut-off for these calls is given here. Where only a bound is given, the exact number is not on record here.

Experiment [1] has as its target T1, Protein cereblon/Wee1-like protein kinase (Homo sapiens) (UniProt P30291+Q96SW2). The experiment can be described thus: PROTAC activity at CRBN/Wee1 in human BT-549 cells assessed as induction of Wee1 degradation at 100 nM and above concentrations measured after 4 hrs by Western blot analysis. In kind it is cell-based. In general terms: In western blotting, separated proteins are transferred to a membrane and probed.

Experiment [2] addresses T1, Protein cereblon/Wee1-like protein kinase (Homo sapiens). The experiment can be described thus: PROTAC activity at CRBN/Wee1 in human LNCaP cells assessed as induction of Wee1 degradation by measuring reduction in CDK1 phosphorylation at Tyr15 residue at 300 nM and above concentrations measured after 4 hrs by Western blot analysis. In kind it is cell-based.
The subject of experiment [3] is BT-549. The experiment is described as follows: Antiproliferative activity against human BT-549 cells assessed as inhibition of cell growth measured after 72 hrs by MTS assay. Format: functional, cell-based. The settings on record: BT-549, 72 h. (In general: Tetrazolium assays rely on reduction of a dye to a coloured formazan, in cell work by metabolically active cells.)

Experiment [4] deals with T1, Protein cereblon/Wee1-like protein kinase (Homo sapiens). The experiment is described as follows: PROTAC activity at CRBN/Wee1 in human HeLa S3 cells assessed as induction of Wee1 degradation at 30 to 10000 nM measured after 4 hrs by Western blot analysis. Format: cell-based. The note with it: dose 30-10000 nM.
For experiment [5] the target is unchanged. The experiment is described as follows: PROTAC activity at CRBN/Wee1 in human HeLa S3 cells assessed as induction of Wee1 degradation by measuring reduction in phosphorylation of CDK1 at Tyr15 residue at 1 uM measured after 24 hrs by Western blot analysis relative to control. Format: cell-based. Further details: scale not given: the % may be the effect or the level left.

Experiment [6] relates to LNCaP. The experiment can be described thus: Antiproliferative activity against human LNCaP cells assessed as inhibition of cell growth measured after 72 hrs by MTS assay. Format: functional, cell-based.
Experiment [7] has as its system MCF7. The experiment can be described thus: Antiproliferative activity against human MCF7 cells assessed as inhibition of cell growth measured after 72 hrs by MTS assay. In kind it is functional, cell-based. The settings on record: MCF7, 72 h.
Experiment [8] has as its target T1, Protein cereblon/Wee1-like protein kinase (Homo sapiens). The experiment is described as follows: PROTAC activity at CRBN/Wee1 in human BT-549 cells assessed as induction of Wee1 degradation by measuring reduction in CDK1 phosphorylation at Tyr15 residue at 300 nM and above concentrations measured after 4 hrs by Western blot analysis. Format: cell-based. The settings on record: MCF7.

The target is the same in experiment [9]. The experiment can be described thus: PROTAC activity at CRBN/Wee1 in human MCF7 cells assessed as induction of Wee1 degradation at 300 nM and above concentrations measured after 4 hrs by Western blot analysis. Format: cell-based.
Experiment [10] shares this target. The experiment is described as follows: PROTAC activity at CRBN/Wee1 in human PC-3 cells assessed as induction of Wee1 degradation at 100 nM and above concentrations measured after 4 hrs by Western blot analysis. Format: cell-based.
Experiment [11] shares this target. The experiment can be described thus: PROTAC activity at CRBN/Wee1 in human HeLa S3 cells assessed as induction of Wee1 degradation at 1 uM measured after 4 hrs by Western blot analysis. Format: cell-based.
For experiment [12] the target is unchanged. The experiment is described as follows: PROTAC activity at CRBN/Wee1 in human BT-549 cells assessed as induction of Wee1 degradation by measuring reduction in CDK1 phosphorylation at Tyr15 residue at 100 nM and above concentrations measured after 4 hrs by Western blot analysis. Format: cell-based.
For experiment [13] the target is unchanged. The experiment is described as follows: PROTAC activity at CRBN/Wee1 in human PC-3 cells assessed as induction of Wee1 degradation by measuring reduction in CDK1 phosphorylation at Tyr15 residue at 100 nM and above concentrations measured after 4 hrs by Western blot analysis. In kind it is cell-based.
Experiment [14] has the same target. The experiment is described as follows: PROTAC activity at CRBN/Wee1 in human HeLa S3 cells assessed as induction of Wee1 degradation by measuring reduction in phosphorylation of CDK1 at Tyr15 residue at 100 to 10000 nM measured after 4 hrs by Western blot analysis. The note with it: dose 100-10000 nM. In kind it is cell-based.
For experiment [15] the target is unchanged. The experiment can be described thus: PROTAC activity at CRBN/Wee1 in human HeLa S3 cells assessed as induction of Wee1 degradation at 1 uM pretreated with pomalidomide for 2 hrs followed by incubation with compound for 5 hrs by Western blot analysis. In kind it is cell-based.
For experiment [16], the system named is PC-3. The experiment is described as follows: Antiproliferative activity against human PC-3 cells assessed as inhibition of cell growth measured after 72 hrs by MTS assay. In kind it is functional, cell-based. The note with it: PC-3, 72 h.
The target in experiment [17] is T1, Protein cereblon/Wee1-like protein kinase (Homo sapiens). The experiment can be described thus: PROTAC activity at CRBN/Wee1 in human HeLa S3 cells assessed as induction of Wee1 degradation at 1 uM measured after 24 hrs by Western blot analysis relative to control. In kind it is cell-based.
For experiment [18] the target is unchanged. The experiment can be described thus: PROTAC activity at CRBN/Wee1 in human HeLa S3 cells assessed as induction of Wee1 degradation by measuring reduction in phosphorylation of CDK1 at Tyr15 residue at 1 uM pretreated with AZD1775 for 2 hrs followed by incubation with compound for 5 hrs by Western blot analysis. In kind it is cell-based.
The target is the same in experiment [19]. The experiment can be described thus: PROTAC activity at CRBN/Wee1 in human LNCaP cells assessed as induction of Wee1 degradation at 300 nM and above concentrations measured after 4 hrs by Western blot analysis. Format: cell-based.
For experiment [20], the target named is T2, von Hippel-Lindau disease tumor suppressor/Wee1-like protein kinase (Homo sapiens) (UniProt P30291+P40337). The experiment is described as follows: PROTAC activity at VHL/Wee1 in human HeLa S3 cells assessed as induction of Wee1 degradation by measuring reduction in phosphorylation of CDK1 at Tyr15 residue at higher concentration measured after 4 hrs by Western blot analysis. Format: cell-based.

Experiment [21] has as its target T2, von Hippel-Lindau disease tumor suppressor/Wee1-like protein kinase (Homo sapiens). The experiment can be described thus: PROTAC activity at VHL/Wee1 in human MCF7 cells assessed as induction of Wee1 degradation at 300 nM and above concentrations measured after 4 hrs by Western blot analysis. In kind it is cell-based.
The target is the same in experiment [22]. The experiment is described as follows: PROTAC activity at VHL/Wee1 in human BT-549 cells assessed as induction of Wee1 degradation by measuring reduction in CDK1 phosphorylation at Tyr15 residue at 300 nM and above concentrations measured after 4 hrs by Western blot analysis. The settings on record: MCF7. In kind it is cell-based.
Experiment [23] shares this target. The experiment is described as follows: PROTAC activity at VHL/Wee1 in human HeLa S3 cells assessed as induction of Wee1 degradation at 30 to 3000 nM measured after 4 hrs by Western blot analysis. Format: cell-based. The note with it: dose 30-3000 nM.
Experiment [24] has the same target. The experiment can be described thus: PROTAC activity at VHL/Wee1 in human BT-549 cells assessed as induction of Wee1 degradation at 100 nM and above concentrations measured after 4 hrs by Western blot analysis. Format: cell-based.
Experiment [25] has the same target. The experiment can be described thus: PROTAC activity at VHL/Wee1 in human LNCaP cells assessed as induction of Wee1 degradation by measuring reduction in CDK1 phosphorylation at Tyr15 residue at 300 nM and above concentrations measured after 4 hrs by Western blot analysis. Format: cell-based.
Experiment [26] has the same target. The experiment can be described thus: PROTAC activity at VHL/Wee1 in human BT-549 cells assessed as induction of Wee1 degradation by measuring reduction in CDK1 phosphorylation at Tyr15 residue at 100 nM and above concentrations measured after 4 hrs by Western blot analysis. In kind it is cell-based.
For experiment [27] the target is unchanged. The experiment is described as follows: PROTAC activity at VHL/Wee1 in human HeLa S3 cells assessed as induction of Wee1 degradation at 1 uM pretreated with VH298 for 2 hrs followed by incubation with compound for 5 hrs by Western blot analysis. In kind it is cell-based.
For experiment [28] the target is unchanged. The experiment is described as follows: PROTAC activity at VHL/Wee1 in human HeLa S3 cells assessed as induction of Wee1 degradation at 1 uM measured after 24 to 48 hrs by Western blot analysis. Format: cell-based. The settings on record: time 24-48 hrs.
For experiment [29] the target is unchanged. The experiment is described as follows: PROTAC activity at VHL/Wee1 in human HeLa S3 cells assessed as induction of Wee1 degradation by measuring reduction in phosphorylation of CDK1 at Tyr15 residue at 1 uM measured after 24 hrs by Western blot analysis relative to control. Format: cell-based. Further details: scale not given: the % may be the effect or the level left.

Experiment [30] shares this target. The experiment can be described thus: PROTAC activity at VHL/Wee1 in human PC-3 cells assessed as induction of Wee1 degradation at 100 nM and above concentrations measured after 4 hrs by Western blot analysis. Format: cell-based.
For experiment [31] the target is unchanged. The experiment can be described thus: PROTAC activity at VHL/Wee1 in human HeLa S3 cells assessed as induction of Wee1 degradation by measuring reduction in phosphorylation of CDK1 at Tyr15 residue at 1 uM pretreated with AZD1775 for 2 hrs followed by incubation with compound for 5 hrs by Western blot analysis. In kind it is cell-based.
For experiment [32] the target is unchanged. The experiment is described as follows: PROTAC activity at VHL/Wee1 in human HeLa S3 cells assessed as induction of Wee1 degradation by measuring reduction in phosphorylation of CDK1 at Tyr15 residue at 30 to 10000 nM measured after 4 hrs by Western blot analysis. Format: cell-based. The note with it: dose 30-10000 nM.
Experiment [33] has the same target. The experiment can be described thus: PROTAC activity at VHL/Wee1 in human HeLa S3 cells assessed as induction of Wee1 degradation at 1 uM measured after 4 hrs by Western blot analysis. In kind it is cell-based.
The target is the same in experiment [34]. The experiment is described as follows: PROTAC activity at VHL/Wee1 in human HeLa S3 cells assessed as induction of Wee1 degradation at 1 uM measured after 24 hrs by Western blot analysis relative to control. Format: cell-based.
Experiment [35] shares this target. The experiment is described as follows: PROTAC activity at VHL/Wee1 in human LNCaP cells assessed as induction of Wee1 degradation at 300 nM and above concentrations measured after 4 hrs by Western blot analysis. Format: cell-based.
For experiment [36] the target is unchanged. The experiment is described as follows: PROTAC activity at VHL/Wee1 in human PC-3 cells assessed as induction of Wee1 degradation by measuring reduction in CDK1 phosphorylation at Tyr15 residue at 100 nM and above concentrations measured after 4 hrs by Western blot analysis. Format: cell-based.

For the compound `C=CCn1c(=O)c2cnc(Nc3ccc(N4CCN(CCCC(=O)NCCOCCOCCNc5cccc6c5C(=O)N(C5CCC(=O)NC5=O)C6=O)CC4)cc3)nc2n1-c1cccc(C(C)(C)O)n1` (stereo not given), the outcome in [1], in experiment [2], in [4], in experiment [8], in experiment [9] and in [10] was Active. In addition, the result in experiment [11], in [12], in [13], in [14], in [15] and in [18] was Active. Moreover, the result in experiment [19] was Active. Moreover, the IC50 in [3] is 7.9 µM; in experiment [6] it was 16.6 µM; in experiment [7], 14 µM; in [16] it was greater than 20 µM. The Activity in [5] was found to be 51%; in experiment [17], 27%.
For `C=CCn1c(=O)c2cnc(Nc3ccc(N4CCN(CCCC(=O)N[C@H](C(=O)N5C[C@H](O)C[C@H]5C(=O)NCc5ccc(-c6scnc6C)cc5)C(C)(C)C)CC4)cc3)nc2n1-c1cccc(C(C)(C)O)n1`, the IC50 in experiment [3] is 2.4 µM; in experiment [6], 5.2 µM; in experiment [7], 7 µM; in experiment [16], greater than 20 µM. Further, the outcome in [20], in [21], in [22], in experiment [23], in [24] and in experiment [25] was Active. Also, the outcome in experiment [26], in [27], in experiment [28], in experiment [30], in [31] and in [32] was Active. For the same compound, the result in [33], in [35] and in [36] was Active. Moreover, the Activity amounted to 49% in experiment [29] and 34% in experiment [34].
